Data taken from patent publication EP4389150A1, “CONJUGATE COMPOUNDS AND THEIR USE IN CANCER TREATMENT AND DIAGNOSIS” (Technische Universität München, priority 2022, dated 2024).
Entries after “also recorded” stand apart in the source; their conditions may differ.

Legend:
[1] = tested on: PC3-PIP cells / PC3-flu cells; experiment: Fluorescence microscopy of Ruc delivery in PSMA+ and PSMA- cells; format: cell-based; conditions: PSMA+ PC3-PIP versus PSMA- PC3-flu cells (Figure 4A)
Description: For microscopic analysis, black clear-bottom 96 well cell culture plates with cover-glass bottom (µ plate 96 well black; ibidi) were coated with poly-L-lysine (0.01% (w/v) in sterile water). Cells were seeded at a density of 20-40,000 cells/well and cultured for 24 h at 37 °C. Subsequently, the PSMA ligands (1 µM; 100 µL/well) were directly added with or without blocking and ligand treatment was accomplished for 5, 60 or 180 min at 37 °C, while in case of GSH preincubation, GSH-OEt (10 mM; 100 µL/well) was applied for 1 h at 37 °C prior to ligand treatment. For the latter case, the PSMA ligands (1 µM, 100 µL/well) were added after removal of the GSH containing medium and the incubation time was 60 min at 37 °C. Afterwards, cells were washed with PBS (2×) and fixed with 4% (w/v) PFA in PBS for 8 min at RT (pH 7.4, 100 µL/well). CellMask™ Green Plasma Membrane Stain was used to stain the cell membrane, whereas for cell nuclei DRAQ5™ was used. Before imaging, cells were washed with PBS (3×) and mounted in PBS (150 µL/well). Finally, cells were imaged using an EVOS M7000 microscope (Thermo Fisher Scientific).

[2] = tested on: PSMA+ (LNCaP); experiment: Cell viability (Alamar Blue), monotherapy, PSMA+ cells; format: cell-based; conditions: 72h
Description: (§1) Black, clear-bottom 96 well culture plates were coated with poly-L-lysine. Afterwards, the plates were washed with PBS (1 × 100 µL), cells were seeded (2000 cells/well for PC3, 10000 cells/well for LNCaP), and cultured for 24 h (PC3) or 48 h (LNCaP) at 37 °C. The culture medium was removed, and new culture medium containing 10 mM GSH-OEt was added and incubated for 1 h at 37 °C. After removal of the GSH-OEt medium, new culture medium containing the PSMA-Ruc conjugates was added. After 72 h of incubation at 37 °C, cells were treated with Alamar Blue for visualization of cell viability. […] Each data points represents one biological replicate.

[3] = tested on: PSMA- (PC3); experiment: Cell viability (Alamar Blue), monotherapy, PSMA- cells; format: cell-based; conditions: PC3, 20 µM, 72h, pretreated with 10 mM GSH; read-out: cell viability compared to untreated cells
Description: as §1

[4] = tested on: mCRPC; conditions: TRITON2 trial, Abida et al., 2020; cited from earlier work
[5] = Wilson et al. 2019; cited from earlier work
[6] = Lipophilicity, n-octanol/PBS distribution coefficient; format: physicochemical; conditions: pH 7.4
Description: Lipophilicity of the conjugates was determine after radiolabeling with ^68Ga. The PSMA ligand (0.80 MBq) was dissolved in PBS (500 µL/pH 7.4) in a reaction vial (1.5 mL; n = 10). Afterwards, n-octanol was added (500 µL) and the mixture was rigorously vortexed for 3 min. Subsequent centrifugation (Biofuge 15, Heraus Sepatech, Osterode, Germany) at 13,000 rpm for 5 min led to a phase separation. After measuring 100 µL of each phase in a γ-counter, the distribution coefficient (logD(O/PBS)) was calculated with Microsoft Excel.

[7] = tested on: LNCaP cells; experiment: Binding and internalization (cell uptake) of 68Ga-labelled PSMA ligands in LNCaP cells; format: cell-based
Description: To determine ligand internalization, LNCaP cells were seeded in a 96 V-bottom well plate at a density of 100,000 cells/well in 5% BSA (w/v)/RPMI medium (100 µL/well) and incubated for 30 min at 37 °C. Afterwards, solutions (25 µL/well) of either 5% BSA (w/v)/RPMI medium or of 2-PMPA (final concentration: 10 µM) in 5% BSA (w/v)/RPMI medium for blockade were added. Then, a solution of the ^68Ga-labeled PSMA-ligand (25 µL/well; 0.4 nM final concentration; AM = 26-30 MBq/nmol) was added to all wells, and the cells were incubated for 5, 15, 30, and 60 min, respectively, at 37 °C. Hereby, each time point was performed in triplicates and each experiment was repeated three times. The internalization process was terminated by placing the plate for 5 min on ice. The free radioligand was obtained by centrifugation of the plate at 600 g for 3 min and removal of the supernatant. Each well was then washed with ice-cold PBS and the fractions of the first two steps were combined. For removal of cell-bound PSMA-ligand, the cells were treated in a next step with ice-cold 2-PMPA-solution (10 µM in PBS; 150 µL/well; 15 min on ice), centrifuged (600 g, 3 min), and washed with ice-cold PBS (150 µL/well). The fractions were again combined. For the analysis of internalized radioligand, the fractions of a 1.0 N NaOH (150 µL/well; 10 min on ice) treatment as well as a concomitant washing step with 1.0 N NaOH (150 µL/well) were pooled. Free, surface bound, and internalized activity, respectively, was measured in a γ-counter.

[8] = target: T1, PSMA (Homo sapiens, UniProt Q04609); experiment: IC50 determination by competition with [68Ga]-PSMA-617 on LNCaP cells; format: binding; conditions: [68Ga]-PSMA-617 0.4 nM, 60 min on ice, natGa-labelled ligands
T1 construct: endogenous in cells; host or cells: LNCaP cells
T1 sequence (Q04609 whole entry): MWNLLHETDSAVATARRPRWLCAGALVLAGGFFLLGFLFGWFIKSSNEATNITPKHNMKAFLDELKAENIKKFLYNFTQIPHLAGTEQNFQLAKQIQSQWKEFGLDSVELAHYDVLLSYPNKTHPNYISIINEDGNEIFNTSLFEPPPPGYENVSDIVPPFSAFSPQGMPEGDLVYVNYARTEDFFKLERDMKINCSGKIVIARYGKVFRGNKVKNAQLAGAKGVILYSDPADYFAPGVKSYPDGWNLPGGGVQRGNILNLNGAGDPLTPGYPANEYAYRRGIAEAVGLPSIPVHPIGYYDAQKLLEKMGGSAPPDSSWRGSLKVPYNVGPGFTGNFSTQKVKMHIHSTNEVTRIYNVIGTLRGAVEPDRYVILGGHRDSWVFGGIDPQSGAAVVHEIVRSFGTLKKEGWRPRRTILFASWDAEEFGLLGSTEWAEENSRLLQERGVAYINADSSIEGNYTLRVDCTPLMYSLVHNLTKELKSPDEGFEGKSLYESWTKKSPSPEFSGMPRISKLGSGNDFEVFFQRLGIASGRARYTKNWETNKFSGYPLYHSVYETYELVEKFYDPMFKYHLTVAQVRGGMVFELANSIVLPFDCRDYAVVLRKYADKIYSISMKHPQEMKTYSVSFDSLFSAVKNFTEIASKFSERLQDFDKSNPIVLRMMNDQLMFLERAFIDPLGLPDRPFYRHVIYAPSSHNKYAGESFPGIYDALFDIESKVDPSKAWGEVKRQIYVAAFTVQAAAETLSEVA
Description: In the meantime, dilution series of the compounds were prepared in 1% BSA (w/v)/HBSS in a separate 96 U-bottom deep well plate ranging from 12 µM to 153.6 pM in 1:5 dilution steps. Next, solutions (25 µL/well) of either 1% BSA (w/v)/HBSS (control) or of the respective dilution series were transferred to the LNCaP cells containing plate. Hereby, each concentration was pipetted in triplicates and each experiment was repeated three times. Subsequently, [^68Ga]-PSMA-617 (25 µL/well; 0.4 nM final concentration; AM = 26-30 MBq/nmol) in 1% BSA (w/v)/HBSS was added to all wells and the plate was incubated for 60 min on ice. Afterwards, the experiment was terminated by centrifugation at 600 g for 3 min and removal of the supernatant. The cells were then washed with ice-cold HBSS (150 µL/well), centrifuged (600 g, 3 min), and the supernatant as well as the washing fraction were combined, representing the amount of free, unbound radioligand. Bound radioligand was obtained by lysis of the cells with 1.0 N NaOH (150 µL/well; 10 min on ice). Afterwards, the plate was washed a second time with 1.0 N NaOH (150 µL/well). Hereby, the washing step was combined with the NaOH fraction. The quantification of bound and free radioligand was finally accomplished via measuring the samples in a γ-counter.

[9] = Serum stability; format: in vitro ADME; conditions: 37 °C
Description: For serum stability analysis, 13.5 µL human serum were mixed with 1.5 µL of an aqueous solution of the test compound (200 µM final concentration) and incubated at 37 °C for 0.5, 1, 2, and 24 h, respectively. Afterwards, 25.0 µL MeCN were added, the suspension was centrifuged (14,000 rpm, 30 min, 4 °C), the supernatant was recovered, and finally analyzed by HPLC-ESI-MS using a linear elution gradient from 10 to 95% (v/v) MeCN/0.1% (v/v) TFA in water/0.1% (v/v) TFA for 15 min.

[10] = tested on: late stage mCRPC; conditions: late stage mCRPC patients, versus 11.3 months with standard therapy; Sartor et al., 2021; cited from earlier work

For `CNCc1ccc(-c2[nH]c3cc(F)cc4c3c2CCNC4=O)cc1` [Ruc, Rucaparib], the “localization of Ruc fluorescence” value [1] was “localized in the cell nucleus of PSMA-expressing and non-expressing cells non-selectively; also recorded: non-selective uptake in PSMA+ and PSMA- cells”, the viability at 20 µM ([2]; Homo sapiens, pretreated with 10 mM GSH, read-out: cell viability compared to untreated cells) was 30 to 50% and the viability at 20 µM [3] was 30 to 50%. For the same compound, the “patients with a partial response” value [4] was 30-40% and the “patients with an objective response” value [4] was 44%.
In the case of `O=C(c1cc(Cc2n[nH]c(=O)c3ccccc23)ccc1[18F])N1CCN(C(=O)C2CC2)CC1` [^18F-Olaparib], the “typical biodistribution of PARPi” value [5] is listed as “low tumor uptake and high gut uptake”.
In the case of `CN(Cc1ccc(-c2[nH]c3cc(F)cc4c3c2CCNC4=O)cc1)C(=O)CCCCCCC(=O)NCCCC[C@@H](NC(=O)CCC(C(=O)O)N1CCN(CC(=O)O)CCN(CC(=O)O)CCN(CC(=O)O)CC1)C(=O)N[C@H](CC(=O)O)C(=O)NCCC(=O)NC[C@H]1CC[C@H](C(=O)N[C@@H](Cc2ccc3ccccc3c2)C(=O)NCCCC[C@H](NC(=O)N[C@@H](CCC(=O)O)C(=O)O)C(=O)O)CC1` (stereo partly drawn) [Conjugate 13, DOTAGA-n-Lys(Ruc-Sub)-n-Asp-β-Ala-TXA-L-Nal-KuE], the logD [6] is reported as -2.58 ± 0.05, the “% bound of total applied dose” value [7] is reported as 10.8 ± 2.07% and the cytotoxic effects ([2]; 20 µM) is reported as “did not show cytotoxic effects”. For the same compound, the IC50 [8] was 0.67 ± 0.09 nM, the “stable (intact) after incubation in human serum” value ([9]; 2 hours) was 94% and the “intact after incubation in human serum” value ([9]; 24 hours) was 89%.
In the case of `O=C([O-])CN1CCN(CC(=O)[O-])CCN(CC(=O)NCC2CCC(C(=O)N[C@@H](Cc3ccc4ccccc4c3)C(=O)NCCCC[C@H](NC(=O)N[C@@H](CCC(=O)O)C(=O)O)C(=O)O)CC2)CCN(CC(=O)[O-])CC1.[177Lu+3]` (stereo partly shown) [^177Lu-PSMA-617], the median overall survival [10] is given as 15.3 months.
